Laboratory results reported in the NIST ThermoML archive (doi:10.1016/j.jct.2018.12.042).
Numbers after ± are expanded uncertainties.

Conditions: for surface tension liquid-gas: Pendant drop shape; for mass density: 101.33 kPa, Liquid, Vibrating tube method

Row | surface tension liquid-gas (318.15 K) | surface tension liquid-gas (288.15 K) | SMILES | surface tension liquid-gas (293.15 K) | surface tension liquid-gas (298.15 K) | surface tension liquid-gas (303.15 K) | surface tension liquid-gas (308.15 K) | surface tension liquid-gas (313.15 K) | mass density (298.15 K) | mass density (288.15 K) | mass density (293.15 K) | mass density (303.15 K) | mass density (308.15 K) | mass density (313.15 K) | mass density (318.15 K) | mass density (328.15 K)
1 |  |  | BrCBr [dibromomethane] | 38.5 ± 0.7 mN/m | 37.76 ± 0.69 mN/m | 37.09 ± 0.68 mN/m | 36.32 ± 0.66 mN/m | 35.55 ± 0.65 mN/m |  |  |  |  |  |  |  | 
2 | 23.28 ± 0.44 mN/m |  | CCCCCO [pentan-1-ol] | 25.17 ± 0.47 mN/m | 24.85 ± 0.46 mN/m | 24.4 ± 0.5 mN/m | 23.96 ± 0.45 mN/m | 23.62 ± 0.44 mN/m | 810.84 ± 1 kg/m3 |  |  |  |  |  |  | 
3 |  |  | ClCCCCCl [1,4-dichlorobutane] | 33.73 ± 0.62 mN/m | 33.15 ± 0.61 mN/m | 32.55 ± 0.6 mN/m | 32.1 ± 0.59 mN/m | 31.59 ± 0.58 mN/m |  |  |  |  |  |  |  | 
4 |  |  | BrCCBr [1,2-dibromoethane] | 38.81 ± 0.7 mN/m | 38.07 ± 0.69 mN/m | 37.48 ± 0.68 mN/m | 36.75 ± 0.67 mN/m | 36.1 ± 0.66 mN/m |  |  |  |  |  |  |  | 
5 |  |  | BrCCCCCBr [1,5-dibromopentane] | 39.37 ± 0.71 mN/m | 38.65 ± 0.7 mN/m | 38.16 ± 0.69 mN/m | 37.6 ± 0.68 mN/m | 37.23 ± 0.68 mN/m |  |  |  |  |  |  |  | 
6 |  |  | ClCCCCCCCl [1,6-dichlorohexane] | 35 ± 0.71 mN/m | 34.31 ± 0.69 mN/m | 33.73 ± 0.68 mN/m | 33.09 ± 0.67 mN/m | 32.7 ± 0.66 mN/m |  |  |  |  |  |  |  | 
7 |  |  | BrCCCCCCBr [1,6-dibromohexane] | 38.92 ± 0.71 mN/m | 38.36 ± 0.7 mN/m | 37.78 ± 0.69 mN/m | 37.21 ± 0.68 mN/m | 36.63 ± 0.67 mN/m |  |  |  |  |  |  |  | 
8 |  |  | ClCCCl [1,2-dichloroethane] | 28 ± 0.52 mN/m | 27.57 ± 0.51 mN/m | 27.06 ± 0.5 mN/m | 26.54 ± 0.49 mN/m | 26.02 ± 0.48 mN/m |  |  |  |  |  |  |  | 
9 |  |  | ClCCCCl [1,3-dichloropropane] | 31.22 ± 0.57 mN/m | 30.77 ± 0.57 mN/m | 30.2 ± 0.56 mN/m | 29.36 ± 0.54 mN/m | 28.7 ± 0.53 mN/m | 1178.97 ± 1.1 kg/m3 | 1189.09 ± 1.1 kg/m3 | 1184.88 ± 1.1 kg/m3 | 1173.1 ± 1.1 kg/m3 | 1167.26 ± 1.1 kg/m3 | 1161.46 ± 1.1 kg/m3 | 1154.88 ± 1.1 kg/m3 | 1142.62 ± 1.1 kg/m3
10 |  |  | BrCCCCBr [1,4-dibromobutane] | 39.91 ± 0.72 mN/m | 39.46 ± 0.72 mN/m | 38.92 ± 0.71 mN/m | 38.29 ± 0.7 mN/m | 37.67 ± 0.68 mN/m |  |  |  |  |  |  |  | 
11 |  |  | BrCCCBr [1,3-dibromopropane] | 39.66 ± 0.72 mN/m | 38.95 ± 0.71 mN/m | 38.33 ± 0.7 mN/m | 37.6 ± 0.68 mN/m | 37.12 ± 0.68 mN/m |  |  |  |  |  |  |  | 
12 |  |  | ClCCCCCCl [1,5-dichloropentane] | 35.02 ± 0.64 mN/m | 34.43 ± 0.63 mN/m | 33.85 ± 0.62 mN/m | 33.22 ± 0.61 mN/m | 32.78 ± 0.6 mN/m | 1095.01 ± 1 kg/m3 | 1103.31 ± 1 kg/m3 | 1100.06 ± 1 kg/m3 | 1089.95 ± 1 kg/m3 | 1084.89 ± 1 kg/m3 | 1079.84 ± 1 kg/m3 | 1074.67 ± 1 kg/m3 | 1064.63 ± 1 kg/m3
13 |  | 73.43 ± 1.2 mN/m | O [water] | 72.84 ± 1.2 mN/m | 72.14 ± 1.2 mN/m |  |  |  |  |  |  |  |  |  |  | 
14 | 24.12 ± 0.45 mN/m | 26.34 ± 0.49 mN/m | CCCCCCO [hexan-1-ol] | 26.06 ± 0.48 mN/m | 25.71 ± 0.48 mN/m | 25.34 ± 0.47 mN/m | 24.9 ± 0.5 mN/m | 24.52 ± 0.46 mN/m | 815.18 ± 1 kg/m3 |  |  |  |  |  |  | 
